From US7335495B2, “Process for the isolation of pharmaceutical compound cyclosporin a from fungus fusarium nivale” (Council of Scientific and Industrial Research, priority 2002, dated 2008)

Tests used:
T. violaceum = experiment: MIC by disk diffusion method, T. violaceum; format: cell-based, Trichophyton violaceum; conditions: disks of 50, 25, 12.5, 6.25 and 3.12 μg, 42-120 hrs at room temperature
Source text: (§1) Czapek Malt Agar (Himedia laboratories Ltd.) was used for culturing Tricholphytos mentagrophytes T. tonsurans, T. violaceum, Aspergillus fresnil and A niger, A. japonicus. Mucological Agar (Himedia Laboratories Ltd was used for Cryptocaccus neoformans and Candida sp.
(§2) Pathogeiic fungal strains of yeast and filamentous fungi (Identified and gifted by Dr. Savio from Goa Medical College, Bamoblim) were used for the test. Strains of Aspergillus were isolated from the infected wheat bread with sterile needles; fungal material was surface sterilized using 0.5% sodium hypochlorite for 2-3 minutes and then washed with small brush in sterile distilled water. This Aspergillus species was described earlier as food spoilage (Bhosale et. Al., 1999). […]
(§3) Innocula were adjusted to 50 μl of Cryptococcus neoformans, Candida sp., Trichophyrou tonsurans, T. violaceum and T. mentagrophytes, Aspergillus fresenil, A. niger, A. japonicus and spread on the appropriate plates, excess moisture was allowed to be absorbed for 10 minutes before applying on disks. […] Test plates were incubated for 42-120 hrs. at room temperature to obtain maximum growth and MIC was determined as lowest concentration of compound and antifungal agents resulting in a cleas zone of growth inhibition. […]

Aspergillus fresenii = experiment: MIC by disk diffusion method, Aspergillus fresenii; format: cell-based; conditions: disks of 50, 25, 12.5, 6.25 and 3.12 μg, 42-120 hrs at room temperature
Source text: as §1, §2, §3

Cryptococcus neoformans = experiment: MIC by disk diffusion method, Cryptococcus neoformans; format: cell-based; conditions: Cryoticiecus Neoformans; disks of 50, 25, 12.5, 6.25 and 3.12 μg; 42-120 hrs at room temperature
Source text: as §1, §2, §3

[1] = system: Trichophyton mentagrophytes; experiment: MIC by disk diffusion method, Trichophyton mentagrophytes; format: cell-based; conditions: disks of 50, 25, 12.5, 6.25 and 3.12 μg, 42-120 hrs at room temperature
Source text: as §1, §2, §3

A. niger = experiment: MIC by disk diffusion method, A. niger; format: cell-based, Aspergillus niger; conditions: disks of 50, 25, 12.5, 6.25 and 3.12 μg, 42-120 hrs at room temperature
Source text: as §1, §2, §3

Candida sp. = experiment: MIC by disk diffusion method, Candida sp.; format: cell-based; conditions: disks of 50, 25, 12.5, 6.25 and 3.12 μg, 42-120 hrs at room temperature
Source text: as §1, §2, §3

T. tonsurans = experiment: MIC by disk diffusion method, T. tonsurans; format: cell-based, Trichophyton tonsurans; conditions: disks of 50, 25, 12.5, 6.25 and 3.12 μg, 42-120 hrs at room temperature
Source text: as §1, §2, §3

A. japonicus = experiment: MIC by disk diffusion method, A. japonicus; format: cell-based, Aspergillus japonicus; conditions: disks of 50, 25, 12.5, 6.25 and 3.12 μg, 42-120 hrs at room temperature
Source text: as §1, §2, §3

Fusarium sp. = experiment: MIC by disk diffusion method, Fusarium sp.; format: cell-based; conditions: disks of 50, 25, 12.5, 6.25 and 3.12 μg, 42-120 hrs at room temperature

| SMILES | MIC, Disk Diffusion Method (T. violaceum) | MIC, Disk Diffusion Method (Aspergillus fresenii) | MIC, Disk Diffusion Method (Cryptococcus neoformans) | MIC, Disk Diffusion Method [1] | MIC, Disk Diffusion Method (A. niger) | MIC, Disk Diffusion Method (Candida sp.) | MIC, Disk Diffusion Method (T. tonsurans) | MIC, Disk Diffusion Method (A. japonicus) | MIC, Disk Diffusion Method (Fusarium sp.) |
| --- | --- | --- | --- | --- | --- | --- | --- | --- | --- |
| C[C@@H]1[C@H](O)[C@@H](C)/C=C/C=C/C=C/C=C/C=C/C=C/C=C/[C@H](O[C@@H]2O[C@H](C)[C@@H](O)[C@H](N)[C@@H]2O)C[C@@H]2O[C@](O)(C[C@@H](O)C[C@@H](O)[C@H](O)CC[C@@H](O)C[C@@H](O)CC(=O)O[C@H]1C)C[C@H](O)[C@H]2C(=O)O [Amphotericin B] | 6.25-12.5 μg/disc^−1 | 6.25-12.5 μg/disc^−1 | 3.12-6.25 μg/disc^−1 | 3.12-6.25 μg/disc^−1 | 6.25-12.5 μg/disc^−1 | 3.12-6.25 μg/disc^−1 | 6.25-12.5 μg/disc^−1 | 6.25-12.5 μg/disc^−1 | 12.5-25 μg/disc^−1 |
| C[C@@H]1[C@H](O)[C@@H](C)/C=C/C=C/CC/C=C/C=C/C=C/C=C/C(O[C@H]2O[C@H](C)[C@@H](O)[C@H](N)[C@@H]2O)CC2O[C@](O)(CC(O)C(O)CCC(O)CC(O)CC(O)CC(=O)O[C@H]1C)CC(O)C2C(=O)O (some centres unmarked) [Nystatin] | – | – | 3.12-6.25 μg/disc^−1 | – | – | 3.12-6.25 μg/disc^−1 | – | – | – |
